How the values were obtained:
THP1-defNLRP3 cells = experiment: Agonistic effect on the expression of IL-1β in NLRP3 deficient THP1 cells (THP1-defNLRP3) after PMA-induced differentiation (HTRF); type: cell-based, human; settings: Homo sapiens, THP-1; IL-1β level, PMA-differentiated NLRP3 deficient THP1 cells, 6 hours; highest test concentration 30 μM; read-out: hNLRP3 EC50 (μM) (THP-1defNLRP3)
Excerpt: Experimental Example 2: Agonistic Effect of the Compound of the Invention on the Expression of IL-1β in NLRP3 Deficient THP1 Cells (THP1-defNLRP3 Cells) after PMA-Induced Differentiation
In this test, a HTRF detection method was used to test the effect of the compound of the invention on the level of IL-1β in THP1-defNLRP3 cells to evaluate the specificity of the agonistic effect of the compound on hNLRP3 inflammasome or hNLRP3 inflammasome pathway.
Reagents: as described in Experimental Example 1
Cell: THP1-defNLRP3 (InvivoGen)
Kit: IL-1β assay kit (CISBIO)
1) THP1-defNLRP3 cells in a logarithmic growth phase were seeded in a T75 culture flask at a density of 5×10^5 cells/well, and cultured in a cell incubator at 37° C., 5% CO2 for 24 hours, and then 1 μM PMA was used to induce THP1-defNLRP3 suspension cells to become adherent macrophages. The medium was RPMI 1640 containing 10% heat-inactivated FBS and 0.05 mM β-mercaptoethanol.
2) The cells were induced and cultured for 24 hours. Then the adherent cells were trypsinized and centrifuged at 1000 rpm for 5 min. The supernatant was removed, and the cells were resuspended to a density of 2×10^6 cells/mL in RPMI 1640 medium containing 2% heat-inactivated FBS. 50 μL/well of the cell resuspension was taken and spread on a 96-well plate such that the number of cells in each well was 1×10^5.
3) An appropriate amount of 10 mM DMSO solution of the compound to be tested was taken and diluted to a concentration of 2× test concentration with RPMI 1640 medium containing 2% heat-inactivated FBS. 50 μL/well of the dilution was added to the cells in the 96-well plate, and mixed well. The plate was incubated in a cell incubator at 37° C., 5% CO2 for 6 hours. The supernatant was collected, and the level of IL-1β was measured in accordance with the instructions of the IL-1β detection kit.
4) EC50 was fitted by the GraphPad software log(agonist) vs. response—Variable slope four-parameter method.

hTLR7 = target: T1, hTLR7 (Homo sapiens, UniProt Q9NYK1); experiment: Agonistic effect on hTLR7, HEK-hTLR7-NF-κB-Luciferase reporter cells; type: cell-based; settings: 16 hours
T1 construct: host or cells: HEK-hTLR7-NF-κB-Luciferase cells
T1 sequence (Q9NYK1 27-1049): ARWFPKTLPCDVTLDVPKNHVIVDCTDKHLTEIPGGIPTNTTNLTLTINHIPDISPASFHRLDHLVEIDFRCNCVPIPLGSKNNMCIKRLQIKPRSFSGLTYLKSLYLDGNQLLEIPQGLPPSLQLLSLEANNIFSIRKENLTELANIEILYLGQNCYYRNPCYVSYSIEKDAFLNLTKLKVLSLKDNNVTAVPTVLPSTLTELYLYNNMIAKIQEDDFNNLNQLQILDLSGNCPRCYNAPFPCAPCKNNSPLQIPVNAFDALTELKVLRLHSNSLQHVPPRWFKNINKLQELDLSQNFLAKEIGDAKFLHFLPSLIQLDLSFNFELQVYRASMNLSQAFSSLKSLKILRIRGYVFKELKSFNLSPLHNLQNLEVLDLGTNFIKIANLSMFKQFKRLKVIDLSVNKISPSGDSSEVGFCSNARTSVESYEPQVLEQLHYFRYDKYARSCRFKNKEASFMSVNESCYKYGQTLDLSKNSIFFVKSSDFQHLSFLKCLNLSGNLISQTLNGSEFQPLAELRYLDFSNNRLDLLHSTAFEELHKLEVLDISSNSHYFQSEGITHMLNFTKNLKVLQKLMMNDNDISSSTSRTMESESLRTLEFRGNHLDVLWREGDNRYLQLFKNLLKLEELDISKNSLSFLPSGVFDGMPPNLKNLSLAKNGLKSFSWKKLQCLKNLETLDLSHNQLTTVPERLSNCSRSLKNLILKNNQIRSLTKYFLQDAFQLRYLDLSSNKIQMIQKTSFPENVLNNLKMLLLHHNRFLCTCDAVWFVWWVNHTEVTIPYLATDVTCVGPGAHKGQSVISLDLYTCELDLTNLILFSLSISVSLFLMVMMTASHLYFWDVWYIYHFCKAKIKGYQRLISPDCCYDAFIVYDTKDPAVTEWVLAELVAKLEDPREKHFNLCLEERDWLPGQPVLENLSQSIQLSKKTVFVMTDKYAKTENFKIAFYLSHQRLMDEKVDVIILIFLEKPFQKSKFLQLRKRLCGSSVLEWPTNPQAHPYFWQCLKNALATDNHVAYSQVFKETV
Excerpt: Experimental Example 3: Agonistic Effect of the Compound of the Invention on hTLR7
In this test, the luciferase in HEK-hTLR7-NF-κB-reporter cells was detected to test the activating effect of the compound of the invention on TLR7 signaling pathway, so as to evaluate the specificity of the agonistic effect of the compound on NLRP3 pathway.
Reagents: DMEM (High glucose); FBS (fetal bovine serum) (Gibco); Bright-Glo™ Luciferase detection kit (Promega)
Cells: HEK-hTLR7-NF-κB-Luciferase gene cells (human TLR7 NF-κB-luciferase reporter gene cells) (Nanjing Cobioer)
1) The HEK-hTLR7-NF-κB-Luciferase cells in a logarithmic growth phase were trypsinized and resuspended in the medium to a concentration of 2×10^6 cells/mL. 50 μL/well of the cell resuspension was added to a 96-well plate such that the number of cells in each well was […]. An appropriate amount of 10 mM DMSO solution of the compound to be tested was taken and diluted to a concentration of 2× test concentration with the medium. 50 μL/well was added to the cells in the 96-well plate, and the 96-well plate was incubated in an incubator at 37° C. and 5% CO2 for 16 hours. The medium was DMEM (High glucose) containing 10% FBS.
2) After the cell incubation, 100 μL/well of Bright-Glo™ Luciferase detection reagent was added, and the mixture was incubated at room temperature for 5 minutes. Relative luciferase activity unit (RLU) was read using a microplate reader.
3) The EC50 of effect of the tested compound to stimulate hTLR7 was fitted by the GraphPad software log(agonist) vs. response—Variable slope four-parameter method.

CYP3A4 = target: T2, CYP3A4 (Homo sapiens, UniProt P08684); experiment: CYP enzyme inhibition test, Vivid CYP3A4 Red Screening Kit; type: in vitro ADME; settings: for inhibitory effect on CYP3A4: conclusion in words
T2 construct: purchased
T2 sequence (P08684 whole entry): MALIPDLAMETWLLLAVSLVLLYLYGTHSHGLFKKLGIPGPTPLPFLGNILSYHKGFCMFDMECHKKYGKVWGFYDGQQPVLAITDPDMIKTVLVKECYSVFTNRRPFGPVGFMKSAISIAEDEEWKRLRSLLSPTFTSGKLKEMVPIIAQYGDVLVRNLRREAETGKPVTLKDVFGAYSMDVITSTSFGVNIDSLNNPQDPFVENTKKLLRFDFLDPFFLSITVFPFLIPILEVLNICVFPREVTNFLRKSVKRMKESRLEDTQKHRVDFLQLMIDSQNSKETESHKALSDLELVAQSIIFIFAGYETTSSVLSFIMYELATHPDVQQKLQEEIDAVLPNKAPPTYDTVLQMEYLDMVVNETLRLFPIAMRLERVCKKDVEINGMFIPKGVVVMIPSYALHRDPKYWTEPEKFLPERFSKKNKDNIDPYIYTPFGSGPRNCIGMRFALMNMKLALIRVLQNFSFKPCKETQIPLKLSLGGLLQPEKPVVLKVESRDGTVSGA
Protocol: Experimental Example 6: CYP Enzyme Inhibition Test CYP450 is the most important enzyme system in drug metabolism. The enzymes involved in metabolism interact with drugs, and the most important ones are CYP1A2, CYP2D6 and CYP3A4. P450-Glo™ CYP1A2 Screening System, Vivid® CYP2D6 Cyan Screening Kit and Vivid® CYP3A4 Red Screening Kit were used in this test, and the inhibitory effects of the compounds on CYP1A2, CYP2D6 and CYP3A4 were determined according to the instructions of the kit.

hERG potassium channel = hERG potassium channel (Homo sapiens, UniProt Q12809); experiment: cell-based
Sequence of hERG potassium channel (Q12809 whole entry): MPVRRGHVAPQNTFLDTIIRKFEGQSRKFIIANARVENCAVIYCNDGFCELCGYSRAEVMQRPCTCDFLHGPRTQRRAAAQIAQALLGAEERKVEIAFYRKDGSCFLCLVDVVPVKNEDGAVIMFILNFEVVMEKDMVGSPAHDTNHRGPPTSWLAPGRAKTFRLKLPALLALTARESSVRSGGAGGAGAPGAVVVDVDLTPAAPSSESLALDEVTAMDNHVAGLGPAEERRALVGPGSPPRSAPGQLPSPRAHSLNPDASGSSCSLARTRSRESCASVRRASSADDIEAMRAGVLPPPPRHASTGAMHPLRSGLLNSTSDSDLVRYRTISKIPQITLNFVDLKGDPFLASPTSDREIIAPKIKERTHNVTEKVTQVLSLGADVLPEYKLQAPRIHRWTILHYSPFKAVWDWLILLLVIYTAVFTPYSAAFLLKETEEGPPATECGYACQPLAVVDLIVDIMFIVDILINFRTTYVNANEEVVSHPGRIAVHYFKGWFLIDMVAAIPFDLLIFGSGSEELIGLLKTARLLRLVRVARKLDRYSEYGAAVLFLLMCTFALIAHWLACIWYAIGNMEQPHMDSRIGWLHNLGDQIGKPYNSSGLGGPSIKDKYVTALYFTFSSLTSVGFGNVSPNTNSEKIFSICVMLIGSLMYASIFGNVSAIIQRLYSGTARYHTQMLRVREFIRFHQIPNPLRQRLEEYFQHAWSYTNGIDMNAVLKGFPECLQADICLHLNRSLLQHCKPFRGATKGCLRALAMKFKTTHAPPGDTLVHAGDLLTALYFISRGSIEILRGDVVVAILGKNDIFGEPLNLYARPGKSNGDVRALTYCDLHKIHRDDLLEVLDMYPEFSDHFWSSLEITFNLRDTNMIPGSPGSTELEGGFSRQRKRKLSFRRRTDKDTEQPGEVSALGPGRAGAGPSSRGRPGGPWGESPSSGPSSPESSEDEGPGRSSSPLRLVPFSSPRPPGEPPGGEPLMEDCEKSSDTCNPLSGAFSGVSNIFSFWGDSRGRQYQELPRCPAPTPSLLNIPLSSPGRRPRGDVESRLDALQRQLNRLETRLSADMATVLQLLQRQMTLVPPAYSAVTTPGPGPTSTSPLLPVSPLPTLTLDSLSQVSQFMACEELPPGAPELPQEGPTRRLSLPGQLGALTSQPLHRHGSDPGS

Row | EC50 (THP1-defNLRP3 cells) [µM] | EC50 (hTLR7) [µM] | IC50 (CYP3A4) [µM] | inhibitory effect on CYP3A4 (CYP3A4) | Compound | IC50 (hERG potassium channel) [µM]
1 | > 30 | > 100 | > 10 | no apparent inhibitory effects | COC(C)(C)CNc1cc(N)nc2cc(-c3ccn[nH]3)sc12 [Compound 111, N^7-(2′-methoxy-2′-methylpropyl)-2-(1H-pyrazol-5-yl)thieno[3,2-b]pyridine-5,7-diamine] | –
2 | > 30 | > 100 | > 10 | no apparent inhibitory effects | Nc1cc(NC2CCC(O)CC2)c2sc(-c3ccn[nH]3)cc2n1 (stereo not shown) [Compound 114, 4-((5-amino-2-(1H-pyrazol-5-yl)thieno[3,2-b]pyridin-7-yl)amino)-1-cyclohexanol] | –
3 | > 30 | > 100 | – | – | Nc1cc(NCC(F)F)c2sc(-c3ccn[nH]3)cc2n1 [Compound 116, N^7-(2,2-difluoroethyl)-2-(1H-pyrazol-5-yl)thieno[3,2-b]pyridine-5,7-diamine] | > 10
4 | > 30 | > 100 | – | – | CS(=O)(=O)N1CCN(c2cc(N)nc3cc(-c4ccn[nH]4)sc23)CC1 [Compound 164] | –
5 | > 30 | > 100 | – | – | COC1(C)CCN(c2cc(N)nc3cc(-c4ccn[nH]4)sc23)CC1 [Compound 165] | –
6 | > 30 | > 100 | – | – | C[C@@H]1CN(c2cc(N)nc3cc(-c4ccn[nH]4)sc23)C[C@H](C)O1 [Compound 169] | –
7 | > 30 | > 100 | – | – | CC1(C)CN(c2cc(N)nc3cc(-c4ccn[nH]4)sc23)CCO1 [Compound 171] | –
8 | > 30 | > 100 | – | – | Nc1cc(N2CCNCC2)c2sc(-c3ccn[nH]3)cc2n1 [Compound 175] | –
9 | > 30 | > 100 | – | – | Nc1cc(N2CCN(C=O)CC2)c2sc(-c3ccn[nH]3)cc2n1 [Compound 178] | –
10 | > 30 | > 100 | – | – | COC1CCN(c2cc(N)nc3cc(-c4ccn[nH]4)sc23)C1 (stereo not shown) [Compound 180] | –
11 | > 30 | > 100 | – | – | Nc1cc(N2CC[C@@H](O)C2)c2sc(-c3ccn[nH]3)cc2n1 [Compound 181] | –

More lines, now with the values behind:

Row | Compound | EC50 (THP1-defNLRP3 cells) [µM] | EC50 (hTLR7) [µM] | IC50 (CYP3A4) [µM] | inhibitory effect on CYP3A4 (CYP3A4) | IC50 (hERG potassium channel) [µM]
12 | Nc1cc(N[C@@H]2CC[C@H](O)C2)c2sc(-c3ccn[nH]3)cc2n1 [Compound 31, (1S,3R)-3-((5-amino-2-(1H-pyrazol-5-yl)thieno[3,2-b]pyridin-7-yl)amino)cyclopentanol] | > 30 | > 100 | > 10 | no apparent inhibitory effects | –
13 | COCCNc1cc(N)nc2cc(-c3ccn[nH]3)sc12 [Compound 100, N^7-(2-methoxyethyl)-2-(1H-pyrazol-5-yl)thieno[3,2-b]pyridine-5,7-diamine] | > 30 | > 100 | – | – | > 10
14 | Nc1cc(NC2COC2)c2sc(-c3ccn[nH]3)cc2n1 [Compound 112, N^7-(oxetan-3-yl)-2-(1H-pyrazol-5-yl)thieno[3,2-b]pyridine-5,7-diamine] | > 30 | > 100 | > 10 | no apparent inhibitory effects | –
15 | CC(C)(CO)CNc1cc(N)nc2cc(-c3ccn[nH]3)sc12 [Compound 115, 3-((5-amino-2-(1H-pyrazol-5-yl)thieno[3,2-b]pyridin-7-yl)amino)-2,2-dimethyl-1-propanol] | > 30 | > 100 | > 10 | no apparent inhibitory effects | > 10
16 | Nc1cc(NCC2CCOCC2)c2sc(-c3ccn[nH]3)cc2n1 [Compound 120, 2-(1H-pyrazol-5-yl)-N^7-((tetrahydro-2H-pyran-4-yl)methyl)thieno[3,2-b]pyridine-5,7-diamine] | > 30 | > 100 | – | – | > 10
17 | Nc1cc(N2CCN(C3CC3)CC2)c2sc(-c3ccn[nH]3)cc2n1 [Compound 163] | > 30 | > 100 | – | – | –
18 | Nc1cc(N2CCCC(O)C2)c2sc(-c3ccn[nH]3)cc2n1 (stereo not shown) [Compound 166] | > 30 | > 100 | – | – | –
19 | Nc1cc(N2CCN(C3CCCCC3)CC2)c2sc(-c3ccn[nH]3)cc2n1 [Compound 167] | > 30 | > 100 | – | – | –
20 | C[C@H]1CN(c2cc(N)nc3cc(-c4ccn[nH]4)sc23)C[C@H](C)O1 [Compound 168] | > 30 | > 100 | – | – | –
21 | Nc1cc(N2CCOCC2)c2sc(-c3ccn[nH]3)cc2n1 [Compound 170] | > 30 | > 100 | – | – | –
22 | Nc1cc(N2CCC(O)CC2)c2sc(-c3ccn[nH]3)cc2n1 [Compound 172] | > 30 | > 100 | – | – | –
23 | CC1(C)CCN(c2cc(N)nc3cc(-c4ccn[nH]4)sc23)CC1 [Compound 173] | > 30 | > 100 | – | – | –
24 | Nc1cc(N2CCN(c3ccccc3)CC2)c2sc(-c3ccn[nH]3)cc2n1 [Compound 174] | > 30 | > 100 | – | – | –
25 | Nc1cc(N2CC3CC(C2)N3)c2sc(-c3ccn[nH]3)cc2n1 [Compound 176] | > 30 | > 100 | – | – | –
26 | C[C@@H]1COCCN1c1cc(N)nc2cc(-c3ccn[nH]3)sc12 [Compound 177] | > 30 | > 100 | – | – | –
27 | Nc1cc(N2CC3CC(C2)N3C=O)c2sc(-c3ccn[nH]3)cc2n1 [Compound 179] | > 30 | > 100 | – | – | –
28 | Nc1cc(N[C@H]2C[C@H]2CO)c2sc(-c3ccn[nH]3)cc2n1 [Compound 182s] | > 30 | > 100 | – | – | –

Reference: patent US20220056043A1, “NITROGEN-CONTAINING FUSED CYCLIC COMPOUND, PREPARATION METHOD THEREFOR AND USE THEREOF” (SICHUAN KELUN-BIOTECH BIOPHARMACEUTICAL CO., LTD., priority 2019, published 2022)
